From the NIST ThermoML archive (doi:10.1016/j.fluid.2015.09.036)
Numbers after ± are expanded uncertainties.

Assay: wn = mass fraction of the nth substance listed
Conditions: 101.3 kPa, Liquid, Vibrating tube method

Compound	mass density (283.15 K, w1 = 0.06948) [kg/m3]	mass density (303.15 K, w1 = 0.1384) [kg/m3]	mass density (313.15 K, w1 = 0.1853) [kg/m3]	mass density (283.15 K, w1 = 0.1926) [kg/m3]	mass density (303.15 K, w1 = 0.4065) [kg/m3]	mass density (313.15 K, w1 = 0.5552) [kg/m3]
O=C(O)CCCCC(=O)O [1,6-hexanedioic acid] + CCO	841 ± 0.3	855.2 ± 0.5	876.9 ± 0.7	–	–	–
O=C(O)CCCC(=O)O [1,5-pentanedioic acid] + CCO	–	–	–	967.2 ± 0.8	999.4 ± 1.6	1005.4 ± 1.8
